Measured values from article PMC8160850 (Viruses, 2021).
Several values for one entry are separate records, joined by “and”; a condition that tells them apart may be missing. Equal entries are not always repeated. Where two headings read alike, the source gives them in different places.

Assays:
[1] = tested on: HCMV TB4-UL83-EYFP; assay type: cell-based, human cytomegalovirus (HCMV); settings: 7 days p.i., MOI 0.03 IU/cell
[2] = tested on: HCMV TB4-UL83-EYFP; assay: Dose-response fluorescence reduction assay; assay type: cell-based, human cytomegalovirus (HCMV); settings: FRA, MRC5, MOI 0.03 IU/cell, 7 days p.i.
[3] = MTT cell cytotoxicity assay; assay type: cell-based; settings: human, uninfected MRC5 cells, MTT, uninfected MRC5, 7 days
[4] = tested on: MRC5 cells; assay: MTT cell cytotoxicity assay; assay type: cell-based; settings: for Selectivity index (SI), CC50/ED50: MTT CC50 / FRA ED50 TB4-UL83-EYFP; for Cytotoxicity (in words): MRC5, up to 100 μM, 7 days
[5] = tested on: MRC5 cells; assay: Intracellular ATP quantification; assay type: cell-based; settings: for Reduction of intracellular ATP levels: 100 μM
[6] = tested on: MRC5 cells; assay type: cell-based
[7] = tested on: MRC5 cells; assay: Cell viability of uninfected cells in the screening; assay type: cell-based; settings: 7 days
[8] = tested on: HCMV AD169; assay: Plaque reduction assay (PRA) in HFF cells; assay type: cell-based, human cytomegalovirus (HCMV)
[9] = tested on: AD169-GFP; assay: FRA with AD169-GFP in MRC5 cells; assay type: cell-based, human cytomegalovirus (HCMV); settings: MRC5, MOI 0.05 IU/cell, 7 days, n = 6
[10] = tested on: AD169-GFP26 (UL97 M460I); assay: FRA with GCV-resistant AD169-GFP26 in MRC5 cells; assay type: cell-based, human cytomegalovirus (HCMV); settings: MRC5, MOI 0.05 IU/cell, 7 days, n = 6
[11] = tested on: AD169-GFP; assay: Virus yield reduction assay (VYRA) with AD169-GFP; assay type: cell-based, human cytomegalovirus (HCMV); settings: n = 4
[12] = tested on: AD169-GFP26 (UL97 M460I); assay: Virus yield reduction assay (VYRA) with AD169-GFP26; assay type: cell-based, human cytomegalovirus (HCMV); settings: AD169-GFP26 (GCV-resistant), n = 4
[13] = tested on: HCMV AD169 gene expression (IE1, ppUL44, pp65, pp28); assay: Analysis of HCMV gene expression by Western blotting in infected MRC5 cells; assay type: cell-based, human cytomegalovirus (HCMV); settings: GCV 16 μM, B3 50 μM; for IE1 expression: 6 and 12 h p.i., AD169 MOI 2 IU/cell; for Expression of ppUL44 and pp65: 48 h p.i.; for pp28 expression: 72 h and 96 h p.i.; for ppUL44 and pp65 levels: up to 24 h p.i.
[14] = tested on: HCMV TB4-UL83-EYFP genome; assay: Analysis of HCMV DNA replication by qPCR in infected MRC5 cells; assay type: cell-based, human cytomegalovirus (HCMV); settings: for Decrease in viral genome copy number: B3 50 μM, MOI 0.01 IU/cell
[15] = tested on: hepatitis C virus (HCV); design: method as in earlier work; settings: Huh7-Lunet cells ref 60; cited from earlier work

Row | Compound | Inhibition of viral replication (YFP fluorescence) ([1]; 10 μM) | CC50 at 7 days [3] [µM] | Selectivity index (SI), CC50/ED50 [4] | Reduction of intracellular ATP levels ([5]; 24 h post treatment) | Cytotoxicity (in words) ([4]; MTT) | ED50 [8] [µM] | ED50 [9] | ED50 [10] [µM] | ED50 [11] | ED50 [12] [µM] | IE1 expression [13] | Expression of ppUL44 and pp65 [13] | pp28 expression [13] | ppUL44 and pp65 levels [13] | other results
1 | Cc1ccc(-c2nnc(Nc3ccc(CC(N)=O)cc3)c3ccccc23)cc1S(=O)(=O)NC1CCCCC1 [B6] | inhibited viral replication | ~10 | < 5 | more than 50% |  |  |  |  |  |  |  |  |  |  | ED50 [2]: 2.1 ± 0.6 µM; CC50 ([4]; MTT, uninfected MRC5, 7 days): 10.7 ± 2.3 µM; Reduction of intracellular ATP levels ([5]; 72 h post treatment): ~100%
2 | O=C(O)C[C@H]1S/C(=N/N=C/c2c(OCc3ccccc3Cl)ccc3ccccc23)NC1=O [C6] |  | > 100 |  | more than 30% | low cytotoxicity |  |  |  |  |  |  |  |  |  | Inhibition of viral replication (YFP fluorescence) ([1]; 100 μM): impaired viral replication; Cell morphology upon microscopic evaluation [6]: significantly altered; Reduction of cell viability ([7]; 100 μM, MTS and CellTiter Glo): ≤ 40%
3 | OC[C@@H](O)Cn1c(Cc2cccc3ccccc23)nc2ccccc21 [B3] | inhibited viral replication | > 100 | > 20 |  | did not cause evident cytotoxicity up to 100 μM | 7.9 ± 3.5 | 7.9 µM and 7.9 ± 2.7 µM | 17.6 ± 12.8 | 5.1 ± 3.3 µM | 9.8 ± 15.6 | neither GCV nor B3 treatment affected IE1 expression | decrease | strongly inhibited | not affected | Effect on intracellular ATP levels ([5]; all time points analyzed (24, 72, 144 h)): minimal effects; Decrease in viral genome copy number ([14]; 72 h p.i.): ~ 4 fold; Decrease in viral genome copy number ([14]; 120 h p.i.): 6 fold; Effect on protein expression and hepatitis C virus replication [15]: did not affect either protein expression nor hepatitis C virus replication
4 | Nc1nc(O)c2ncn(COC(CO)CO)c2n1 [GCV, Ganciclovir, reference compound] |  | > 100 |  |  | did not cause detectable cytotoxic effects at any concentration tested | 1.3 ± 0.9 | 2.3 µM and 2.3 ± 1.9 µM | 21.7 ± 9.6 | 0.7 µM and 0.7 ± 0.4 µM | 4.7 ± 4.8 | neither GCV nor B3 treatment affected IE1 expression | decrease | strongly inhibited | not affected | Viral genome copy number (in words) ([14]; GCV 16 μM, starting from 72 h p.i.): significantly reduced viral genome copy number
5 | CCOc1ccccc1[C@H]1C(C#N)=C(SCC(=O)OC)NC(=O)[C@@H]1C#N [A4] |  |  |  |  |  |  |  |  |  |  |  |  |  |  | Solubility in culture medium (precipitates) [6]: not soluble; Cytotoxicity ([7]; 10 μM, uninfected MRC5): caused evident cytotoxicity
